In patent publication US8759481B2, “Peptide vaccines for cancers expressing tumor-associated antigens” (Oncotherapy Science, Inc., priority 2007, dated 2014):
Entries after “also recorded” stand apart in the source; their conditions may differ. Ends that are not written are not given here.

What was measured:
Assay in all cases: 51Cr release cytotoxicity assay
Assay type in all cases: cell-based, human
A498 cancer cell line = details: A498 expressing only HIG2
Procedure: (§1) Cytotoxic activity was evaluated by a four-hour ^51Cr release assay. The target cells were pulsed with a 20 micro g/mL concentration of peptide overnight. The target cells were labeled with 100 micro Ci of Na2^51CrO4 at 37 degrees C. for one hour, and then washed three times with RPMI1640. The target cells (1×10^4/100 micro L) and 100 micro L of effector cells at various numbers with a total volume of 200 micro L were placed into a round-bottomed 96-well microtiter plate (Corning), and cultured at 37 degrees C. in a CO2 incubator for four hours. After culturing, 100 micro L of the supernatant was collected from each well, and measured the radioactivity using a gamma counter. Spontaneous release was the radioactivity from the target cells with medium in the absence of effector cells, and maximum release was the radioactivity from the target cells with 1 M HCl.
(§2) The Percentage of specific cytotoxicity was determined by calculating as following formula: % Specific lysis=[(experimental release−spontaneous release)/(maximum release−spontaneous release)]×100. Results Enhanced CDH3, EPHA4, ECT2, HIG2, INHBB, KIF20A, KNTC2, TTK and URLC10 Expression in Cancers
(§3) Furthermore, Cytotoxic activity was examined by cytotoxicity assay according to the protocols set forth in the “Materials and Methods” section above.

Caki-1 cancer cell line = details: Caki-1 endogenously expressing HIG2 and HLA-A02; listed as HIG2-A02-9-4
Procedure: as §1, §2, §3

[1] = tested on: 293T transfected with HIG2 gene and/or HLA-A02
Text: The cDNA encoding an open reading frame of target genes or HLA-A02 or HLA-A24 was amplified by PCR. The PCR-amplified product was cloned into pcDNA3.1 myc-His vector (Invitrogen). The plasmids were transfected into the target cells, HLA-A02 and HLA-A24-null normal human cell line COS7 or 293T using lipofectamine (Invitrogen) according to the manufacturer's recommended procedures. Alternatively, the plasmid contained the target genes were transfected into A24-LCL by electroporation using GenePulserII (Biorad). Briefly, 2.5×10^6 A24-LCL cells were pulsed with 10 mcg prasmid at 140V and 1000 micro F. After 2 days from transfection, the transfected cells were treated with Cell dissociation solution and used as the target cells for CTL activity assay.
Cytotoxic activity was evaluated by a four-hour ^51Cr release assay. […] After culturing, 100 micro L of the supernatant was collected from each well, and measured the radioactivity using a gamma counter. Spontaneous release was the radioactivity from the target cells with medium in the absence of effector cells, and maximum release was the radioactivity from the target cells with 1 M HCl.
The Percentage of specific cytotoxicity was determined by calculating as following formula: % Specific lysis=[(experimental release−spontaneous release)/(maximum release−spontaneous release)]×100. […]

## VLNLYLLGV [SEQ ID NO: 117, VLNLYLLGV]
A498 cancer cell line
  Cytotoxic activity against A498 (Cr-release assay): did not demonstrate the cytotoxic activity
Caki-1 cancer cell line
  Cytotoxic activity against Caki-1 (Cr-release assay): remarkably high cytotoxic effect; also recorded: very potent cytotoxic activity
[1]
  Cytotoxic activity against 293T transfected with both HIG2 gene and HLA-A02 (Cr-release assay): very potent cytotoxic activity
[1]; control transfectants
  Cytotoxic activity against 293T transfected only HIG2 or only HLA-A02 (Cr-release assay): did not demonstrate the cytotoxic activity
